Publication PMC7764330, “Bioassay-Guided Isolation of Anti-Alzheimer Active Components from the Aerial Parts of Hedyotis diffusa and Simultaneous Analysis for Marker Compounds” (Molecules, 2020)
Values after ≈ are worked out from the molar mass of the structure shown. Like-named read-outs stand apart in the source and are kept apart here.

Experiments:
[1] = test system: formation of advanced glycation end-product (AGE); assay: Inhibition of formation of AGE (BSA with fructose and glucose, fluorescence); format: biochemical; details: mean ± SD, n = 3; for IC50: isolated compounds
Protocol: The inhibitory activity of the formation of AGE was measured with a spectrophotometric method developed previously, with slight modifications. Briefly, the assay mixture contained 50 mM phosphate buffer (pH 7.4) with 0.02% sodium azide, 0.4 M fructose and glucose, bovine serum albumin (10 mg/mL), and the sample. Next, the assay mixture was incubated at 60 °C for 2 days. After incubation, 200 μL of the reaction product was measured at excitation and emission wavelengths of 350 and 450 nm, respectively. All samples and positive control (aminoguanidine) were dissolved in 10% analytical-grade DMSO at five different final concentrations. All reactions were measured in black 96-well microplates and tested in triplicate. The percentage of inhibition (%) of the formation of AGE was estimated using the following formula: {(Ac − As)/Ac} × 100, where Ac is the fluorescence of the control and As is the fluorescence of the sample. Inhibition of the formation of AGE of each sample was presented in terms of IC50, as calculated from the log dose-inhibition curve.

[2] = biological target: T1, acetylcholinesterase (AChE) (Electrophorus electricus, UniProt O42275); assay: biochemical; format: biochemical; details: mean ± SD, n = 3
T1 construct: purchased Sigma-Aldrich Co. (St. Louis, MO, USA)
T1 sequence (O42275 24-633): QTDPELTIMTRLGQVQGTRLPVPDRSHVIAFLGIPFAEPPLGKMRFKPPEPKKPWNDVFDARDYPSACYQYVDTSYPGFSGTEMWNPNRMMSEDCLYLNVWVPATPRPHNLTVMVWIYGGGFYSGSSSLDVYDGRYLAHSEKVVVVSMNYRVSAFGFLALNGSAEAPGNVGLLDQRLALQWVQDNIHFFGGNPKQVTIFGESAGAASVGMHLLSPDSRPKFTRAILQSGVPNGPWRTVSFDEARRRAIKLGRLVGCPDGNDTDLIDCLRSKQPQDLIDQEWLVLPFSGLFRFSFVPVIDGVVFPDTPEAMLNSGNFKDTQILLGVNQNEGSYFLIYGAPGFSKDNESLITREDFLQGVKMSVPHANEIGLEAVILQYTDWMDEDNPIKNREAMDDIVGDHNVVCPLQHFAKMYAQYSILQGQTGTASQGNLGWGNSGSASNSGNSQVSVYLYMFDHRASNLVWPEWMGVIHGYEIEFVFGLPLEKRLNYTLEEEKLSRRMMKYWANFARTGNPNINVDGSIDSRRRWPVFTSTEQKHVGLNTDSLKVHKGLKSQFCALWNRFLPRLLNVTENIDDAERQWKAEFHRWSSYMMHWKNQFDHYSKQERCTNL
Text: (§1) Methanol (MeOH), ethanol (EtOH), n-hexane (Hx), dichloromethane (DCM), ethyl acetate (EA), n-butanol (BuOH) (Samchun Pure Chemical, Pyeongtaek, Gyeonggi, Korea) and distilled water were used for extraction, fractionation, and open column chromatography. Open column chromatography used silica gel 60 (40–63 μm; Merck, Darmstadt, Germany), Sephadex LH-20 (25–100 μm; Pharmacia, Stockholm, Sweden), MCI CHP 20P (Supelco, St. Louis, MO, USA), and octadecyl-silica (ODS) gel (400–500 mesh; Waters, Milford, MA, USA). Methanol-d4 (CD3OD) and dimethyl sulfoxide-d6 (DMSO-d6) were used for NMR analysis. The molecular weight was determined by ultra-high-performance liquid chromatography (UPLC) and high-resolution mass spectrometry (HRMS) by connecting an electrospray ionization hybrid linear trap-quadruple-Orbitrap MS system (ESI/LTQ-Orbitrap) to an Ultimate 3000 rapid separation liquid chromatography (RSLC) system (Thermo, Darmstadt, Germany). A TECAN Sunrise microplate reader and Infinite F200 pro (Männedorf, Zürich, Switzerland) were used for absorbance and fluorescence, respectively. High performance liquid chromatography (HPLC) was performed using Waters 2695 system pump and Waters 996 Photodiode array detector (Waters, Milford, MA, USA); data was extracted with Empower Pro 2.0 software. The separation column was a Waters Kromasil C18 column (4.6 × 250 mm, 5 μm). HPLC-grade solvents (e.g., acetonitrile and distilled water (H2O)) were purchased from J. T. Baker® (Phillipsburg, PA, USA). HPLC-grade acetic acid was purchased from Fisher Chemical (Janssen Pharmaceuticalaan, Geel, Belgium). In addition, analytical-grade dimethyl sulfoxide (DMSO), used as a solvent in the bioassay, was purchased from DEAJUNG Chemical (Siheung, Gyeonggi, Korea). Reagents and solvents, including AChE from electric eel, acetylthiocholine iodide (ATCh), BChE from equine serum, S-butyrylthiocholine iodide (BTCh), 5,5′- dithiobis [2-nitrobenzoic acid] […] The BACE1 (β-secretase) FRET assay kit was purchased from Pan Vera Co. (Madison, WI, USA).
(§2) The inhibitory activities of the test samples against ChE (AChE and BChE) were evaluated using the spectrophotometric method developed in a previous study. ATCh and BTCh were used as substrates to measure the inhibitory activities of AChE and BChE, respectively. The assay mixture contained 0.1 M sodium phosphate buffer (pH 7.8), 0.3 U/mL AChE or BChE, 0.5 mM DTNB, 0.6 mM ATCh or BTCh, and the tested sample solution that were mixed and incubated for 15 min at room temperature. […] Reactions started on addition of 10 μL of DTNB and 10 μL of either ATCh or BTCh. The ChE inhibitory activity was monitored based on the formation of the yellow 5-thio-2-nitrobenzoate anion at 412 nm for 15 min that was due to the reaction of DTNB and thiocholine released from ATCh or BTCh. All reactions were measured in 96-well microplates and tested in triplicate. The percentage of inhibition (%) was estimated using the following formula: {(Ac − As)/Ac} × 100, where Ac is the enzyme activity without the test sample and As is the enzyme activity with the test sample.

[3] = biological target: T2, β-site amyloid precursor protein cleaving enzyme 1 (BACE1) (Homo sapiens, UniProt P56817); assay: BACE1 (β-secretase) FRET enzyme assay; format: biochemical; details: mean ± SD, n = 3
T2 construct: purchased Pan Vera Co. (Madison, WI, USA)
T2 sequence (P56817 22-501 limits assumed): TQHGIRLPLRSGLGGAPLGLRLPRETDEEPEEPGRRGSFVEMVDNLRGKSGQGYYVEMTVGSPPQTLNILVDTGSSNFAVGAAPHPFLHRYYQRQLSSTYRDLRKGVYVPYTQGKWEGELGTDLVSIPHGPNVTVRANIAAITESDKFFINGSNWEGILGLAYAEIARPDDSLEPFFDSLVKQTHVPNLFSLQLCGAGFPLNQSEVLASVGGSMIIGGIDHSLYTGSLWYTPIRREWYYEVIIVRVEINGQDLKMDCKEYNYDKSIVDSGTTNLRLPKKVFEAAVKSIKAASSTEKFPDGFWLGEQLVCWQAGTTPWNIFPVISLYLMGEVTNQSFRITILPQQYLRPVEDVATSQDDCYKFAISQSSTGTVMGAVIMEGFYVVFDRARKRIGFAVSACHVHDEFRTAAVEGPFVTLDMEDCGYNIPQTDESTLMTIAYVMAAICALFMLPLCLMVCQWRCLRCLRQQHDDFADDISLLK
Text: as §1
The BACE1 enzyme assay was performed in accordance with the manufacturer’s recommended protocol, with minor modifications. Briefly, the assay mixture contained 1.0 U/mL of BACE1, 50 mM sodium acetate buffer (pH 4.5), the substrate (750 nM Rh-[…]-Quencher in 50 mM ammonium bicarbonate), and samples. […] The reaction mixture was incubated for 60 min at 25 °C in the dark. Prior to measurement, stop solution (2.5 M sodium acetate) was added to the assay mixture. […] All reactions were measured in black 96-well microplates and tested in triplicate. The percentage of inhibition (%) was obtained using the following formula: [1 − (S60 − S0)/(C60 − C0)] × 100, where C60 is the fluorescence of the control after 60 min of incubation, C0 is the initial fluorescence of the control, S60 is the fluorescence of the tested sample after 60 min of incubation, and S0 is the initial fluorescence of the tested sample. BACE1 inhibitory activity assay of each sample was presented in terms of IC50, as calculated from the log dose inhibition curve.

[4] = biological target: T3, butyrylcholinesterase (BChE) (Equus caballus, UniProt P81908); assay: biochemical; details: isolated compounds, mean ± SD, n = 3
T3 construct: BChE from equine serum; purchased Sigma-Aldrich Co. (St. Louis, MO, USA); host or cells: equine serum
T3 sequence (P81908 whole entry): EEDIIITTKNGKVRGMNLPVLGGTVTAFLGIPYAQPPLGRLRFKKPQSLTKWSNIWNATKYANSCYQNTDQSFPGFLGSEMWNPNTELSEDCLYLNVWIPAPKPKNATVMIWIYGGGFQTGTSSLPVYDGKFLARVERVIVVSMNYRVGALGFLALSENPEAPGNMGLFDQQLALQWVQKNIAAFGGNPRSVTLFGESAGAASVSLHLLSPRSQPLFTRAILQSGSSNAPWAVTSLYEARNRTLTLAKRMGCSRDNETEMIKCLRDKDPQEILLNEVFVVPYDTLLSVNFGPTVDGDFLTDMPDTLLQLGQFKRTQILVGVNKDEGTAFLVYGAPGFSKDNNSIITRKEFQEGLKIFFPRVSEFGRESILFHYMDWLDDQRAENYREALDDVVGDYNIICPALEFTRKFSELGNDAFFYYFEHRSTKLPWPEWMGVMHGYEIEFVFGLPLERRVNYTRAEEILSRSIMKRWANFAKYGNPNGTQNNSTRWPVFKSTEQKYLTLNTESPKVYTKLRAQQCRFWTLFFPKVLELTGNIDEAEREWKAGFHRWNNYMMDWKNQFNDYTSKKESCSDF
Text: as §1, §2

neuroinflammation = test system: neuroinflammation; set-up: method as in PMID 27623545; details: for the treatment of AD; cited from earlier work
[5] = isolated compounds, read-out: IC50 AChE
[6] = isolated compounds, read-out: IC50 BACE1

SMILES | IC50 [1] | IC50 ([3]; IC50 BACE1, isolated compounds) | IC50 [2, 5] | IC50 ([4]; read-out: IC50 BChE) | further results
N=C(N)NN [AMG, aminoguanidine, reference compound] | – | – | – | – | IC50 AGE Formation ([1]; extract and fractions): 131.92 ± 11.24 µg/mL (≈ 1780 µM)
COc1ccc2cc3[n+](cc2c1OC)CCc1cc2c(cc1-3)OCO2 [Berberine, berberine, reference compound] | – | – | – | – | IC50 ([2]; IC50 AChE, extract and fractions): 0.327 µM; IC50 ([2]; IC50 AChE, isolated compounds): 0.31 ± 0.01 µM
COC(=O)C1=CO[C@@H](O[C@@H]2O[C@H](CO)[C@@H](O)[C@H](O)[C@H]2O)[C@@H]2C(CO)=C[C@@H](OC(=O)/C=C/c3ccc(O)cc3)[C@H]12 [Compound 1, E-6-O-p-coumaroyl scandoside methyl ester] | 105 ± 14.5 µM | 63.3 ± 4.56 µM | 304 ± 12.2 µM | – | –
COC(=O)C1=CO[C@@H](O[C@@H]2O[C@H](CO)[C@@H](O)[C@H](O)[C@H]2O)[C@@H]2C(CO)=C[C@@H](OC(=O)/C=C/c3ccc(O)cc3)[C@H]12 [Compound 2, 6-O-p-coumaroyl scandoside methyl ester] | 381 ± 42.7 µM | 121 ± 14.8 µM | 298 ± 22.7 µM | – | –
COC(=O)C1=CO[C@@H](O[C@@H]2O[C@H](CO)[C@@H](O)[C@H](O)[C@H]2O)[C@@H]2C(CO)=C[C@@H](OC(=O)/C=C/c3ccc(O)c(OC)c3)[C@H]12 [Compound 3, E-6-O-feruloyl scandoside methyl ester] | – | 121 ± 11.9 µM | 96.8 ± 5.29 µM | 116 ± 29.4 µM | –
COC(=O)C1=CO[C@@H](O[C@@H]2O[C@H](CO)[C@@H](O)[C@H](O)[C@H]2O)[C@@H]2C(CO)=C[C@H](O)[C@H]12 [Compound 4, deacetylasperulosidic acid methyl ester] | – | – | 172 ± 20.6 µM | 17.6 ± 0.78 µM | IC50 [3, 6]: > 500 µM
CC(=O)OCC1=C[C@@H]2OC(=O)C3=CO[C@@H](O[C@@H]4O[C@H](CO)[C@@H](O)[C@H](O)[C@H]4O)[C@H]1[C@@H]32 [Compound 5, asperuloside] | > 1000 µM | > 500 µM | – | – | IC50 ([4]; IC50 BChE): > 500 µM; IC50 ([2]; IC50 AChE, isolated compounds): 259 ± 7.48 µM
COC(=O)C1=CO[C@@H](O[C@@H]2O[C@H](CO)[C@@H](O)[C@H](O)[C@H]2O)[C@@H]2C(CO)=C[C@H](OC)[C@H]12 [Compound 6, 6-O-Methyldeacetylasperulosidic acid methyl ester] | – | > 500 µM | 81.1 ± 5.58 µM | 32.2 ± 2.8 µM | –
COC(=O)C1=CO[C@@H](O[C@@H]2O[C@H](CO)[C@@H](O)[C@H](O)[C@H]2O)[C@@H]2C(CO)=C[C@@H](OC)[C@H]12 [Compound 7, 6-O-Methylscandoside methyl ester] | – | > 500 µM | – | 11.6 ± 0.68 µM | IC50 AChE ([2]; isolated compounds): did not inhibit AChE
COC(=O)C1=CO[C@@H](O[C@@H]2O[C@H](CO)[C@@H](O)[C@H](O)[C@H]2O)[C@@H]2C(CO)=C[C@@H](O)[C@H]12 [Compound 8, scandoside methyl ester] | – | – | 158 ± 13.2 µM | 16.2 ± 2.05 µM | IC50 [3, 6]: > 500 µM
CC(=O)OCC1=C[C@H](O)[C@@H]2C(C(=O)O)=CO[C@@H](O[C@@H]3O[C@H](CO)[C@@H](O)[C@H](O)[C@H]3O)[C@H]12 [Compound 9, asperulosidic acid] | – | > 500 µM | – | – | IC50 ([4]; IC50 BChE): 80.3 ± 19.8 µM; IC50 ([2]; IC50 AChE, isolated compounds): 68.3 ± 5.11 µM
COc1cc(/C=C/C(=O)OC[C@H]2O[C@@H](O[C@H]3[C@H](Oc4c(-c5ccc(O)c(O)c5)oc5cc(O)cc(O)c5c4=O)O[C@H](CO)[C@@H](O)[C@@H]3O)[C@H](O)[C@@H](O)[C@@H]2O)ccc1O [Compound 10, quercetin-3-O-[2″-O-(6‴-O-E-feruloyl)-β-D-glucopyranosyl]-β-D-glucopyranoside] | 2.71 ± 0.06 µM | 4.49 ± 1.86 µM | 46.2 ± 1.59 µM | 13.8 ± 0.37 µM | –
O=c1c(O[C@@H]2O[C@H](CO)[C@@H](O)[C@H](O)[C@H]2O[C@@H]2O[C@H](CO)[C@@H](O)[C@H](O)[C@H]2O)c(-c2ccc(O)c(O)c2)oc2cc(O)cc(O)c12 [compound β, quercetin-3-O-sophoroside] | – | – | – | – | neuroinflammation inhibitory activity (neuroinflammation): does not show effective neuroinflammation inhibitory activity
